IC50 data for 32 molecules are collected here from patent US9884063B2, “Amido-substituted azole compounds” (Bayer Pharma Aktiengesellschaft, priority 2014, dated 2018).

The structures appear in SMILES notation.

For the assay, the system named is wildtype Wnt signaling cascade. Nature of the assay: HEK293 TOP Assay (Super TopFlash luciferase reporter, Wnt-3a stimulated). It counts as cell-based. The note with it: Homo sapiens, HEK293, 16 h, HEK293 TOP reporter cell line, Wnt-3a at EC50, 16 hours incubation, compound dilution series 50 μM to 15 nM. The procedure: In order to discover and characterize small molecules which inhibit the wildtype Wnt pathway, a cellular reporter assay was employed. The corresponding assay cell was generated by transfection of the mammalian cell line HEK293 (ATCC, #CRL-1573) with the Super TopFlash vector (Morin, Science 275, 1997, 1787-1790; Molenaar et al., Cell 86 (3), 1996, 391-399). The HEK293 cell line is cultivated at 37° C. and 5% CO2 in DMEM (Life Technologies, #41965-039), supplemented with 2 mM glutamine, 20 mM HEPES, 1.4 mM pyruvate, 0.15% Na-bicarbonate and 10% foetal bovine serum (GIBCO, #10270). Stable transfectants were generated by selection with 300 μg/ml Hygromycin.
In preparation of the assay, the two cell lines were plated 24 hrs before beginning the test at 10000 cells per well in a 384 micro titre plate (MTP) in 30 μl growth medium. […] The recombinant human Wnt-3a was thereby applied between 2500 and 5 ng/ml in two-fold dilution steps.
Selective inhibitory activity for small molecules on the wildtype Wnt pathway was determined after parallel incubation of both (TOP and FOP) HEK293 reporter cell lines with a compound dilution series from 50 μM to 15 nM in steps of 3.16-fold dilutions in CAFTY buffer (130 mM sodium chloride, 5 mM potassium chloride, 20 mM HEPES, 1 mM magnesium chloride, 5 mM sodium bicarbonate, pH 7.4) containing 2 mM Ca^2+ and 0.01% BSA.
The compounds were thereby serially prediluted in 100% DMSO and thereafter 50 fold into the CAFTY compound dilution buffer (described above).
For the molecule `CNC(=O)c1nc[nH]c1C(=O)Nc1ccc(NC(=O)c2ccco2)cc1` [Example 329, N^5-{4-[(furan-2-ylcarbonyl)amino]phenyl}-N^4-methyl-1H-imidazole-4,5-dicarboxamide], inhibition was half-maximal at 50 µM (IC50).
On to `CNC(=O)c1nc[nH]c1C(=O)Nc1ccc(NC(=O)c2cncs2)cc1` [Example 345, N^4-methyl-N^5-{4-[(1,3-thiazol-5-ylcarbonyl)amino]phenyl}-1H-imidazole-4,5-dicarboxamide], for which the IC50 (in general, the concentration that inhibits the measured activity by half) is 50 µM.
For `CNC(=O)c1nc[nH]c1C(=O)Nc1ccc(NC(=O)c2ccc(C(F)(F)F)cc2)cc1` [Example 316, N^4-methyl-N^5-(4-{[4-(trifluoromethyl)benzoyl]amino}phenyl)-1H-imidazole-4,5-dicarboxamide], the IC50 came to 13.5 µM.
As for `CNC(=O)c1nc[nH]c1C(=O)Nc1ccc(NC(=O)c2cccc(C(F)(F)F)c2Cl)cc1` [Example 358, N^5-(4-{[2-chloro-3-(trifluoromethyl)benzoyl]amino}phenyl)-N^4-methyl-1H-imidazole-4,5-dicarboxamide], the figure is 4.1 µM.
As for `CNC(=O)c1nc[nH]c1C(=O)Nc1ccc(NC(=O)c2cccc(N(C)C)c2)cc1` [Example 317, N^5-(4-{[3-(dimethylamino)benzoyl]amino}phenyl)-N^4-methyl-1H-imidazole-4,5-dicarboxamide], the figure is 50 µM; as for `O=C(Nc1ccc(NC(=O)c2nc[nH]c2C(=O)NCCO)cc1)c1ccc(F)cc1` [Example 136, N^4-{4-[(4-fluorobenzoyl)amino]phenyl}-N^5-(2-hydroxyethyl)-1H-imidazole-4,5-dicarboxamide], 2.4 µM; as for `CNC(=O)c1nc[nH]c1C(=O)Nc1ccc(NC(=O)c2ccc(F)cc2O)cc1` [Example 245, N^5-{4-[(4-fluoro-2-hydroxybenzoyl)amino]phenyl}-N^4-methyl-1H-imidazole-4,5-dicarboxamide], 50 µM.
In the case of `CC1CN(CCNC(=O)c2[nH]cnc2C(=O)Nc2ccc(NC(=O)c3ccc(F)cc3Cl)cc2)CC(C)O1` (centres unmarked) [Example 301, N^4-{4-[(2-4-fluorochlorobenzoyl)amino]phenyl}-N^5-[2-(2,6-dimethylmorpholin-4-yl)ethyl]-1H-imidazole-4,5-dicarboxamide], the IC50 was found to be 1.2 µM.
As for `CNC(=O)c1nc[nH]c1C(=O)Nc1ccc(NC(=O)c2cccc(F)c2)cc1` [Example 331, N^5-{4-[(3-fluorobenzoyl)amino]phenyl}-N^4-methyl-1H-imidazole-4,5-dicarboxamide], the figure is 8.6 µM.
As for `CNC(=O)c1nc[nH]c1C(=O)Nc1ccc(NC(=O)c2cc(F)cc(C#N)c2)cc1` [Example 371, N^5-{4-[(3-cyano-5-fluorobenzoyl)amino]phenyl}-N^4-methyl-1H-imidazole-4,5-dicarboxamide], the figure is 50 µM; as for `O=C(Nc1ccc(NC(=O)c2nc[nH]c2C(=O)N2CCC2)cc1)c1ccc(F)cc1` [Example 143, 5-(azetidin-1-ylcarbonyl)-N-{4-[(4-fluorobenzoyl)amino]phenyl}-1H-imidazole-4-carboxamide], 29.5 µM.
With `COC(=O)c1nc[nH]c1C(=O)Nc1ccc(NC(=O)c2ccc(F)cc2)c(F)c1` [Example 75, methyl-5-({3-fluoro-4-[(4-fluorobenzoyl)amino]phenyl}carbamoyl)-1H-imidazole-4-carboxylate], half-maximal inhibition (IC50) required 13 µM.
Regarding `CNC(=O)c1nc[nH]c1C(=O)Nc1ccc(NC(=O)c2cccc(C#N)c2)cc1` [Example 311, N^5-{4-[(3-cyanobenzoyl)amino]phenyl}-N^4-methyl-1H-imidazole-4,5-dicarboxamide], it took 50 µM to reach half-maximal inhibition (IC50).
As for `CC(C)CNC(=O)c1[nH]cnc1C(=O)Nc1ccc(NC(=O)c2ccc(F)cc2)cc1` [Example 146, N^4-{4-[(4-fluorobenzoyl)amino]phenyl}-N^5-isobutyl-1H-imidazole-4,5-dicarboxamide], the figure is 5.15 µM; as for `COCCNC(=O)c1[nH]cnc1C(=O)Nc1ccc(NC(=O)c2ccc(F)cc2)cc1` [Example 140, N^4-{4-[(4-fluorobenzoyl)amino]phenyl}-N^5-(2-methoxyethyl)-1H-imidazole-4,5-dicarboxamide], 5.7 µM; as for `CNC(=O)c1nc[nH]c1C(=O)Nc1ccc(NC(=O)c2ccc(C)cn2)cc1` [Example 357, N^4-methyl-N^5-(4-{[(5-methylpyridin-2-yl)carbonyl]amino}phenyl)-1H-imidazole-4,5-dicarboxamide], 11.2 µM.
The figure for `CNC(=O)c1nc[nH]c1C(=O)Nc1ccc(NC(=O)c2ccc(C#N)c(F)c2)cc1` [Example 350, N^5-{4-[(4-cyano-3-fluorobenzoyl)amino]phenyl}-N^4-methyl-1H-imidazole-4,5-dicarboxamide] is 6.5 µM; for `CNC(=O)c1nc[nH]c1C(=O)Nc1ccc(NC(=O)c2cc(F)ccc2F)cc1` [Example 318, N^5-{4-[(2,5-difluorobenzoyl)amino]phenyl}-N^4-methyl-1H-imidazole-4,5-dicarboxamide] it is 1.3 µM.
Molecule `O=C(Nc1ccc(NC(=O)c2nc[nH]c2C(=O)NCC(F)F)cc1)c1ccc(F)cc1` [Example 141, N^5-(2,2-difluoroethyl)-N^4-{4-[(4-fluorobenzoyl)amino]phenyl}-1H-imidazole-4,5-dicarboxamide] displayed an IC50 of 3 µM.
Molecule `O=C(Nc1ccc(NC(=O)c2[nH]cnc2C(=O)NCCN2CCNC2=O)cc1)c1ccc(F)cc1Cl` [Example 399, N^5-{4-[(2-chloro-4-fluorobenzoyl)amino]phenyl}-N^4-[2-(2-oxoimidazolidin-1-yl)ethyl]-1H-imidazole-4,5-dicarboxamide] returned an IC50 of 1.2 µM.
Molecule `CNC(=O)c1nc[nH]c1C(=O)Nc1ccc(NC(=O)c2ccccc2N(C)C)cc1` [Example 339, N^5-(4-{[2-(dimethylamino)benzoyl]amino}phenyl)-N^4-methyl-1H-imidazole-4,5-dicarboxamide] yielded an IC50 of 45.5 µM.
For the molecule `O=C(Nc1ccc(NC(=O)c2nc[nH]c2C(=O)NCCF)cc1)c1ccc(F)cc1` [Example 174, N^4-{4-[(4-fluorobenzoyl)amino]phenyl}-N^5-(2-fluoroethyl)-1H-imidazole-4,5-dicarboxamide], half-maximal inhibition (IC50) required 1.05 µM. This IC50 is about 43-fold lower than that of the molecule before.
As for `O=C(Nc1ccc(NC(=O)c2nc[nH]c2C(=O)NCCN2CCOCC2)cc1)c1ccc(F)cc1` [Example 151, N^4-{4-[(4-fluorobenzoyl)amino]phenyl}-N^5-[2-(morpholin-4-yl)ethyl]-1H-imidazole-4,5-dicarboxamide], the figure is 0.95 µM.
The figure for `O=C(Nc1ccc(NC(=O)c2[nH]cnc2C(=O)NCCN2CCCCC2)cn1)c1ccc(F)cc1` [Example 117, N^5-{6-[(4-fluorobenzoyl)amino]pyridin-3-yl}-N^4-[2-(piperidin-1-yl)ethyl]-1H-imidazole-4,5-dicarboxamide] is 40 µM; for `CNC(=O)c1nc[nH]c1C(=O)Nc1ccc(NC(=O)c2ccc(F)cc2)c(C)c1` [Example 91, N^5-{4-[(4-fluorobenzoyl)amino]-3-methylphenyl}-N^4-methyl-1H-imidazole-4,5-dicarboxamide] it is 44.5 µM; for `CNC(=O)c1nc[nH]c1C(=O)Nc1ccc(NC(=O)c2ccc(F)cc2)c(OC)c1` [Example 103, N^5-{4-[(4-fluorobenzoyl)amino]-3-methoxyphenyl}-N^4-methyl-1H-imidazole-4,5-dicarboxamide] it is 38 µM.
The figure for `COC(=O)c1nc[nH]c1C(=O)Nc1ccc(NC(=O)c2ccccc2Cl)nc1` [Example 111, methyl 5-({6-[(2-chlorobenzoyl)amino]pyridin-3-yl}carbamoyl)-1H-imidazole-4-carboxylate] is 0.77 µM; for `CN1CCN(CCCNC(=O)c2[nH]cnc2C(=O)Nc2ccc(NC(=O)c3ccccc3Cl)cc2)CC1` [Example 192, N^4-{4-[(2-chlorobenzoyl)amino]phenyl}-N^5-[3-(4-methylpiperazin-1-yl)propyl]-1H-imidazole-4,5-dicarboxamide] it is 0.46 µM.
`CNC(=O)c1nc[nH]c1C(=O)Nc1ccc(NC(=O)c2ccc(OC)c(C)c2)cc1` [Example 355, N^5-{4-[(4-methoxy-3-methylbenzoyl)amino]phenyl}-N^4-methyl-1H-imidazole-4,5-dicarboxamide] gave an IC50 of 25 µM.
The figure for `CNC(=O)c1nc[nH]c1C(=O)Nc1ccc(NC(=O)c2cc(F)c(F)c(Cl)c2)cc1` [Example 362, N^5-{4-[(3-chloro-4,5-difluorobenzoyl)amino]phenyl}-N^4-methyl-1H-imidazole-4,5-dicarboxamide] is 50 µM; for `CNC(=O)c1nc[nH]c1C(=O)Nc1ccc(NC(=O)c2ccc(Cl)cc2OC)cc1` [Example 310, N^5-{4-[(4-chloro-2-methoxybenzoyl)amino]phenyl}-N^4-methyl-1H-imidazole-4,5-dicarboxamide] it is 10.5 µM.
The figure for `CNC(=O)c1nc[nH]c1C(=O)Nc1ccc(NC(=O)c2ccc(Cl)cc2)cc1` [Example 306, N^5-{4-[(4-chlorobenzoyl)amino]phenyl}-N^4-methyl-1H-imidazole-4,5-dicarboxamide] is 3.15 µM.
